According to the SangsterLogP compilation:

logP | Compound
2.76 | CC(=O)OCC1=C(C(=O)O)N2C(=O)C(NC(=O)Cc3ccc(-c4ccc(Cl)cc4)o3)C2SC1 (centres undefined)
0.09 | CC(=O)OCC1=C(C(=O)O)N2C(=O)C(NC(=O)Cc3ccco3)C2SC1 (centres undefined)
0.72 | CC(=O)OCC1=C(C(=O)O)N2C(=O)C(NC(=O)Cc3ccc([N+](=O)[O-])o3)C2SC1 (centres undefined)
2.42 | CC(=O)OCC1=C(C(=O)O)N2C(=O)C(NC(=O)Cc3ccc(-c4ccccc4Cl)o3)C2SC1 (centres undefined)

Second part, the compound before the results:

Compound | logP
CC1=C(C(=O)O)N2C(=O)C(NC(=O)Cc3ccc(-c4c(Cl)cccc4Cl)o3)C2SC1 (centres undefined) | 3.6
CC1=C(C(=O)O)N2C(=O)C(NC(=O)Cc3ccc(-c4ccccc4)o3)C2SC1 (centres undefined) | 1.66
CC1=C(C(=O)O)N2C(=O)C(NC(=O)Cc3ccc(-c4ccc(Cl)cc4)o3)C2SC1 (centres undefined) | 2.38
CC(=O)OCC1=C(C(=O)O)N2C(=O)C(NC(=O)Cc3ccc(-c4c(Cl)cccc4Cl)o3)C2SC1 (centres undefined) | 2.78
CC1=C(C(=O)O)N2C(=O)C(NC(=O)Cc3ccco3)C2SC1 (centres undefined) | -0.13
